Active and inactive are the calls of the source. For most assays here, no stated cut-off is given here; in the data, actives have a measured Kd and inactives only a lower limit.
Experiments:
[1] = biological target: Bone morphogenetic protein receptor type-1B (Homo sapiens, UniProt O00238)
[2] = biological target: Mitogen-activated protein kinase 3 (Homo sapiens, UniProt P27361)
[3] = biological target: T1, Beta-adrenergic receptor kinase 1 (Homo sapiens, UniProt P25098)
T1 sequence (P25098 whole entry): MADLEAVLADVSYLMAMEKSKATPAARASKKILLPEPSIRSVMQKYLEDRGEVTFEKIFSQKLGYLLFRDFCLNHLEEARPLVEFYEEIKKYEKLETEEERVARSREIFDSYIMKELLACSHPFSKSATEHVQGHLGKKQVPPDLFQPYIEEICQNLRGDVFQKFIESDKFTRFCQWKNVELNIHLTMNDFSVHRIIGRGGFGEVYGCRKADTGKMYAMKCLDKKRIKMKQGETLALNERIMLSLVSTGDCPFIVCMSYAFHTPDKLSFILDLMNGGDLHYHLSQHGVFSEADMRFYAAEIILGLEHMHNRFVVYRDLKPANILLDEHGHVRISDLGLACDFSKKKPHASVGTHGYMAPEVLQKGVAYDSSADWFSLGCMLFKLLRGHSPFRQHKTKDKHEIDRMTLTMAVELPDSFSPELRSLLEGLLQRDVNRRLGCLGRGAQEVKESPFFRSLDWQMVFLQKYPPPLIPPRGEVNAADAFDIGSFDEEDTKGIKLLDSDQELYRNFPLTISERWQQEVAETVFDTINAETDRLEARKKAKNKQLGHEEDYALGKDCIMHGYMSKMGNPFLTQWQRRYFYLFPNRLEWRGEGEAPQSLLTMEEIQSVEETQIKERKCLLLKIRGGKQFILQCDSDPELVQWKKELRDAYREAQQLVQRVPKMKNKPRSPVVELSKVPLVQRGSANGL

[4] = biological target: Myosin-14 (Homo sapiens, UniProt Q7Z406)
[5] = biological target: Cyclin-dependent kinase 2 (Homo sapiens, UniProt P24941)
[6] = biological target: T2, Rab-like protein 3 (Homo sapiens, UniProt Q5HYI8)
T2 sequence (Q5HYI8 whole entry): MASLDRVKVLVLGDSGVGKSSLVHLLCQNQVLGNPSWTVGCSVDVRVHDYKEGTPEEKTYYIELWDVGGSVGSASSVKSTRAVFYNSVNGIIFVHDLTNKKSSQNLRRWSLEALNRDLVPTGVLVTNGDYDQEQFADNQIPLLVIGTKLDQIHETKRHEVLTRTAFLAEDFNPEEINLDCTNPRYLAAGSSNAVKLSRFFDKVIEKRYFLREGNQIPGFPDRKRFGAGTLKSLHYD

[7] = biological target: Mitogen-activated protein kinase 9 (Homo sapiens, UniProt P45984)
[8] = biological target: MAP kinase-activated protein kinase 2 (Homo sapiens, UniProt P49137)
[9] = biological target: Mitogen-activated protein kinase kinase kinase kinase 1 (Homo sapiens, UniProt Q92918)
[10] = biological target: Cyclin-dependent kinase 5 (Homo sapiens, UniProt Q00535)
[11] = biological target: T3, Non-receptor tyrosine-protein kinase TNK1 (Homo sapiens, UniProt Q13470)
T3 sequence (Q13470 whole entry): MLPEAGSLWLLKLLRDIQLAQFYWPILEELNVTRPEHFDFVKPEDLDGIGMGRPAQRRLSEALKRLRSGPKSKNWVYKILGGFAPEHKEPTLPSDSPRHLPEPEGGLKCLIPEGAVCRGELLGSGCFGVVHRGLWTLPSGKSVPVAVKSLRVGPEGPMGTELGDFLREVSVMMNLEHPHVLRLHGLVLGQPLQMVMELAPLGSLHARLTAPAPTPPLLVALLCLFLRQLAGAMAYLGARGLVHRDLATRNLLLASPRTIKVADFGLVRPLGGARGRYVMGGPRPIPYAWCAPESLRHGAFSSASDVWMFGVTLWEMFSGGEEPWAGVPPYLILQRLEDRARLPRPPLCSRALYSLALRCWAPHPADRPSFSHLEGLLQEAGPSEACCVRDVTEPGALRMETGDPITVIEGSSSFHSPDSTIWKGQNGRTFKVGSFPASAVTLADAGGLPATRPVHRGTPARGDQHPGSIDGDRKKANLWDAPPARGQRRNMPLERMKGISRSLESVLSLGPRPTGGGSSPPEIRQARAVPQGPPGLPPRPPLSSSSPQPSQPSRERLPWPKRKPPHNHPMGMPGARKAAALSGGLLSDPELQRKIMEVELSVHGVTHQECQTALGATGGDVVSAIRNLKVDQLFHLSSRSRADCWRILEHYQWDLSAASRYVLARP

[12] = biological target: Mitogen-activated protein kinase kinase kinase kinase 5 (Homo sapiens, UniProt Q9Y4K4)
[13] = biological target: Tyrosine-protein kinase BTK (Homo sapiens, UniProt Q06187)
[14] = biological target: Serine/threonine-protein kinase PAK 4 (Homo sapiens, UniProt O96013)
[15] = biological target: Casein kinase II subunit alpha' (Homo sapiens, UniProt P19784)
[16] = biological target: Epidermal growth factor receptor (Homo sapiens, UniProt P00533)
[17] = biological target: Glycogen synthase kinase-3 beta (Homo sapiens, UniProt P49841)
[18] = biological target: TRAF2 and NCK-interacting protein kinase (Homo sapiens, UniProt Q9UKE5)
[19] = biological target: Dual specificity testis-specific protein kinase 1 (Homo sapiens, UniProt Q15569)
Chain of Dual specificity testis-specific protein kinase 1 (Q15569 whole entry): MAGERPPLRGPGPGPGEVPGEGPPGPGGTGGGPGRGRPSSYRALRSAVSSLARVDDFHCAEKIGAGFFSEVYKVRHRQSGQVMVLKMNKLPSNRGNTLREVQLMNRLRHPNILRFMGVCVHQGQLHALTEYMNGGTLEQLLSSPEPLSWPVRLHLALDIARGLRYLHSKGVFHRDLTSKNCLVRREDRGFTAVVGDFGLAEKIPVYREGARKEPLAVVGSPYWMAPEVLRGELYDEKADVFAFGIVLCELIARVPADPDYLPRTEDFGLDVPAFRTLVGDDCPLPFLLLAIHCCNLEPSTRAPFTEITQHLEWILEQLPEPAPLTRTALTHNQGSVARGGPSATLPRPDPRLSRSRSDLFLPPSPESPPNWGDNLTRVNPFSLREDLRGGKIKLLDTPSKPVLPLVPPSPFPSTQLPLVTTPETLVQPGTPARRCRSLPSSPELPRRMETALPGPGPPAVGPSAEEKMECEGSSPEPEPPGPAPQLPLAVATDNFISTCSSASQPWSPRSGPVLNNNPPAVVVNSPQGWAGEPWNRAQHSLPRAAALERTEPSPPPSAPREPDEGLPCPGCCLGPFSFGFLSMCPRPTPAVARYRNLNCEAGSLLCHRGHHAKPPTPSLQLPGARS

Chain of Tyrosine-protein kinase BTK (Q06187 whole entry): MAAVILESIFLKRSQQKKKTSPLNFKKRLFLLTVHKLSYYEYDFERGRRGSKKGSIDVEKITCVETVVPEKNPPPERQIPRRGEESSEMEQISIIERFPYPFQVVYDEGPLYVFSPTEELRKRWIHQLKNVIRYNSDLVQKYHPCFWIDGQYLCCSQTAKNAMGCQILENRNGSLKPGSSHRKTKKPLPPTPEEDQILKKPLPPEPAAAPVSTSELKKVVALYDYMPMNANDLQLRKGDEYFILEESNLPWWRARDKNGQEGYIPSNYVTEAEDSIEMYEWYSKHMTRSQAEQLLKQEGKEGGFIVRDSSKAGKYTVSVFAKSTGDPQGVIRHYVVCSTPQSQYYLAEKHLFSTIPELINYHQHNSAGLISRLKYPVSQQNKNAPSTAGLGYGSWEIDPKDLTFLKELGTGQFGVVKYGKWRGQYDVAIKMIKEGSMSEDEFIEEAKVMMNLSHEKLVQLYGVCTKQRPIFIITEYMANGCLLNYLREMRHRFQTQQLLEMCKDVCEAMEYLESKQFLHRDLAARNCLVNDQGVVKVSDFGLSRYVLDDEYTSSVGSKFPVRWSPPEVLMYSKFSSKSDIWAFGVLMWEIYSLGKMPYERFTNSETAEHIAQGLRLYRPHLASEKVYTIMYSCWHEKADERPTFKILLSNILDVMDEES
Chain of TRAF2 and NCK-interacting protein kinase (Q9UKE5 whole entry): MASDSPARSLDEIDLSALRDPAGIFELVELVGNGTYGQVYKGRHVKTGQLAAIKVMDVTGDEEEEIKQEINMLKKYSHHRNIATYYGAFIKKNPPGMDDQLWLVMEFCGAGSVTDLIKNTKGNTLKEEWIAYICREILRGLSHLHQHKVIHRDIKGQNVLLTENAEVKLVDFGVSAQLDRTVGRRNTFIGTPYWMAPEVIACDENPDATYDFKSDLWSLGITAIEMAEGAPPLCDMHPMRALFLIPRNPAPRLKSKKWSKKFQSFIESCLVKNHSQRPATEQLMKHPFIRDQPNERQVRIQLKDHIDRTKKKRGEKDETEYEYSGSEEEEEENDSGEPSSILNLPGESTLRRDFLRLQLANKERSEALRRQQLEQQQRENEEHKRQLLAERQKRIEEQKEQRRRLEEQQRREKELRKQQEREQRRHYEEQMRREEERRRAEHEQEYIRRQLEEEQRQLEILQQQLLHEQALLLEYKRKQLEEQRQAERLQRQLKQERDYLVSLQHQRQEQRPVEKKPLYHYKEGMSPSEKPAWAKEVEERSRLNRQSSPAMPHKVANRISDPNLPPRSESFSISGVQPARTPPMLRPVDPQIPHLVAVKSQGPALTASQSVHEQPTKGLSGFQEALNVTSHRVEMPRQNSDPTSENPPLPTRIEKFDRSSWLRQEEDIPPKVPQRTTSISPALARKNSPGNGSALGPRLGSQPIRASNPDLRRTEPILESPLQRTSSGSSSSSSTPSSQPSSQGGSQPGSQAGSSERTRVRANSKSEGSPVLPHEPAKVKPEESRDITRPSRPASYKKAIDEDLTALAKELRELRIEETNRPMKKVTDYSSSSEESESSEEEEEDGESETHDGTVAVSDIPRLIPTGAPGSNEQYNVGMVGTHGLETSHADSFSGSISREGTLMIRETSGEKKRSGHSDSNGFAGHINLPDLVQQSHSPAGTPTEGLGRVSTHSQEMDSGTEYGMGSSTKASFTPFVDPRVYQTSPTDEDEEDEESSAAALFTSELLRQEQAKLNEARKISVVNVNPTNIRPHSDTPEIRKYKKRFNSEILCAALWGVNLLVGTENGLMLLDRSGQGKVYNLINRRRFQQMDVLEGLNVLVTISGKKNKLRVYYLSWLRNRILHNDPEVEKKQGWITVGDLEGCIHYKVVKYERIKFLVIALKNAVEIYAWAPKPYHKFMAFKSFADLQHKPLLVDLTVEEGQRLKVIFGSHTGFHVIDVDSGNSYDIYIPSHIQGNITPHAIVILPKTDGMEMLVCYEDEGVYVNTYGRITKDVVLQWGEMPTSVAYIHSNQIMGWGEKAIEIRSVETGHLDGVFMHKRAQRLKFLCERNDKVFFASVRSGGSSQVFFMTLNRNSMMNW
Chain of Casein kinase II subunit alpha' (P19784 whole entry): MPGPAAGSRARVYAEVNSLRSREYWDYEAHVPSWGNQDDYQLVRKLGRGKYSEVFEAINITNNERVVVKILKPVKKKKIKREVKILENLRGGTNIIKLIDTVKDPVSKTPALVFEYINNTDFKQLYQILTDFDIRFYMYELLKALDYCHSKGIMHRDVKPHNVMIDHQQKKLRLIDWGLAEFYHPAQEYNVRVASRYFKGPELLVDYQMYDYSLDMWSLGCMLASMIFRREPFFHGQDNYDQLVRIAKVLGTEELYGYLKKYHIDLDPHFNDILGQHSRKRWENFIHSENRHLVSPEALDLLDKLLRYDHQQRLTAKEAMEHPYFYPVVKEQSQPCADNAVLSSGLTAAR
Chain of Mitogen-activated protein kinase 9 (P45984 whole entry): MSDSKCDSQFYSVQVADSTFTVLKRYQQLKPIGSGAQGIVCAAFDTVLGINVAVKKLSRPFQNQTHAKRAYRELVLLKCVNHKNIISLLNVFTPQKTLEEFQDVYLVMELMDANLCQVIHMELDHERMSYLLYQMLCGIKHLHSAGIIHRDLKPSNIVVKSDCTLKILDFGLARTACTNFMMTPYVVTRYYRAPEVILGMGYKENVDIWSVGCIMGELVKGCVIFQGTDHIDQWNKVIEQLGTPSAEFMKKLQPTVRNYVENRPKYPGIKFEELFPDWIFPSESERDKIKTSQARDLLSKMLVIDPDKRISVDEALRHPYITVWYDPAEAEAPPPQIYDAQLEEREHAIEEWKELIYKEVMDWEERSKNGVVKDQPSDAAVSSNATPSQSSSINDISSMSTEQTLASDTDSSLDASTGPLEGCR
Chain of Bone morphogenetic protein receptor type-1B (O00238 whole entry): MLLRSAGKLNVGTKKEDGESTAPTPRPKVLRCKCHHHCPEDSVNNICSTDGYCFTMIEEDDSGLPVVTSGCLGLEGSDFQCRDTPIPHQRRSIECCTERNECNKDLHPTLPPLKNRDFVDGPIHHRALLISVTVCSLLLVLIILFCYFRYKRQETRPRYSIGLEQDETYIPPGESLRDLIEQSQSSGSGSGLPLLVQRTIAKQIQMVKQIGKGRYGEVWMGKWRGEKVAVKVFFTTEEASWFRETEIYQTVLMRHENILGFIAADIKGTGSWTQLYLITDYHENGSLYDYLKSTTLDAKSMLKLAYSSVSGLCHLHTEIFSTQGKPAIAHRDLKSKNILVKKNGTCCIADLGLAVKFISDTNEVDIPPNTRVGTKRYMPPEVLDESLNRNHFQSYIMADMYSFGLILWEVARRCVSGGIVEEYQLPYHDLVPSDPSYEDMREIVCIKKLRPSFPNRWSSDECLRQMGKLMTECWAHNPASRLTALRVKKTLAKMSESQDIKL
Chain of Mitogen-activated protein kinase kinase kinase kinase 1 (Q92918 whole entry): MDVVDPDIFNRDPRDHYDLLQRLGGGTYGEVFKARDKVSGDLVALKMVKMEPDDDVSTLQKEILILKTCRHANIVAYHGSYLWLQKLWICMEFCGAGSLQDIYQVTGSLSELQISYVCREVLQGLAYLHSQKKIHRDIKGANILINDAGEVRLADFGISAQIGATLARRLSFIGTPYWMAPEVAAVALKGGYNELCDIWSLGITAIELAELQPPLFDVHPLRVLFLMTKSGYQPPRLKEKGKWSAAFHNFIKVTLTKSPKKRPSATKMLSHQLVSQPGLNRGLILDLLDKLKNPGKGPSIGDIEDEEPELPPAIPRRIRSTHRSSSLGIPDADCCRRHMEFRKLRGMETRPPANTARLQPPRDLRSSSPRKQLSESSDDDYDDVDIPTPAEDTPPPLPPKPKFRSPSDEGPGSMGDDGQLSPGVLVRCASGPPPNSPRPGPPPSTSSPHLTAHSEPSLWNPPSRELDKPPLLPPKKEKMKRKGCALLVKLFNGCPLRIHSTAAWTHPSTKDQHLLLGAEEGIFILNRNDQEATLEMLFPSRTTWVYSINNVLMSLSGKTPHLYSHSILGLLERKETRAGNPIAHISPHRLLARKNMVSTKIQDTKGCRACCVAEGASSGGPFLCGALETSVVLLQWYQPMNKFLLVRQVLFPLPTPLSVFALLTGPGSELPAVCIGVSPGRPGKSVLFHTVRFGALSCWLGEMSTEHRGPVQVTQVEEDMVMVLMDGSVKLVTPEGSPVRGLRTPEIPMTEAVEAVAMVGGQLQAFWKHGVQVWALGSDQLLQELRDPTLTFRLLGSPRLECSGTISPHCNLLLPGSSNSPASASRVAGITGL
Chain of Cyclin-dependent kinase 5 (Q00535 whole entry): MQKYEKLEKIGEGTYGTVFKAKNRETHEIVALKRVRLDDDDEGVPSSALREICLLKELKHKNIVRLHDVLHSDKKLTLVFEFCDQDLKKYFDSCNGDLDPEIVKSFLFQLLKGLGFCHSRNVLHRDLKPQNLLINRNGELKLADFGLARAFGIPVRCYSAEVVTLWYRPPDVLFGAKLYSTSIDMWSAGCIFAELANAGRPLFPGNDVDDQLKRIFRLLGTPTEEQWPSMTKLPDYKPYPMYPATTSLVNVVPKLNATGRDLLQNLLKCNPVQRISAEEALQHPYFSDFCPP

Kd [1] | Kd [2] | Kd [3] | Kd [4] | Kd [5] | Kd [6] | Kd [7] | Kd [8] | Kd [9] | Kd [10] | Kd [11] | Kd [12] | Kd [13] | Kd [14] | Kd [15] | Kd [16] | Kd [17] | Kd [18] | Kd [19] | Compound
> 30 µM (inactive) | > 30 µM (inactive) | > 30 µM (inactive) | > 30 µM (inactive) | > 30 µM (inactive) | > 30 µM (inactive) | > 30 µM (inactive) | > 30 µM (inactive) | > 30 µM (inactive) | > 30 µM (inactive) | > 30 µM (inactive) | 20.9 µM (active) | > 30 µM (inactive) | > 30 µM (inactive) | > 30 µM (inactive) | > 30 µM (inactive) | > 30 µM (inactive) | > 30 µM (inactive) | – | C[C@@H](Oc1cc(C(=O)Nc2ccc(C(=O)N3CCN(C)CC3)cc2)nnc1N)c1c(Cl)ccc(F)c1Cl
0.123 µM (active) | > 30 µM (inactive) | > 30 µM (inactive) | > 30 µM (inactive) | > 30 µM (inactive) | > 30 µM (inactive) | > 30 µM (inactive) | > 30 µM (inactive) | > 30 µM (inactive) | > 30 µM (inactive) | > 30 µM (inactive) | > 30 µM (inactive) | > 30 µM (inactive) | > 30 µM (inactive) | > 30 µM (inactive) | > 30 µM (inactive) | – | > 30 µM (inactive) | > 30 µM (inactive) | Cc1nc2cc(-c3nn(C(C)C)c4ncnc(N)c34)ccc2o1
1.44 µM (active) | > 30 µM (inactive) | > 30 µM (inactive) | > 30 µM (inactive) | > 30 µM (inactive) | > 30 µM (inactive) | > 30 µM (inactive) | > 30 µM (inactive) | > 30 µM (inactive) | > 30 µM (inactive) | > 30 µM (inactive) | 2.49 µM (active) | > 30 µM (inactive) | > 30 µM (inactive) | > 30 µM (inactive) | > 30 µM (inactive) | > 30 µM (inactive) | > 30 µM (inactive) | – | Nc1ncnc2c1c(-c1cccc(OCc3ccccc3)c1)cn2[C@H]1C[C@@H](CN2CCC2)C1 [AEW-541]
> 30 µM (inactive) | > 30 µM (inactive) | > 30 µM (inactive) | > 30 µM (inactive) | > 30 µM (inactive) | – | > 30 µM (inactive) | > 30 µM (inactive) | – | > 30 µM (inactive) | > 30 µM (inactive) | > 30 µM (inactive) | > 30 µM (inactive) | > 30 µM (inactive) | > 30 µM (inactive) | > 30 µM (inactive) | > 30 µM (inactive) | > 30 µM (inactive) | > 30 µM (inactive) | Cc1nc(NC(=O)N2CCC[C@H]2C(N)=O)sc1-c1ccnc(C(C)(C)C(F)(F)F)c1 [ALPELISIB]
> 30 µM (inactive) | > 30 µM (inactive) | > 30 µM (inactive) | > 30 µM (inactive) | > 30 µM (inactive) | – | > 30 µM (inactive) | > 30 µM (inactive) | > 30 µM (inactive) | > 30 µM (inactive) | > 30 µM (inactive) | > 30 µM (inactive) | > 30 µM (inactive) | > 30 µM (inactive) | > 30 µM (inactive) | > 30 µM (inactive) | > 30 µM (inactive) | > 30 µM (inactive) | – | Cc1cc(C(=O)NOCCO)c(Nc2ccc(I)cc2F)n(C)c1=O [AZD-8330]
> 30 µM (inactive) | > 30 µM (inactive) | > 30 µM (inactive) | > 30 µM (inactive) | > 30 µM (inactive) | > 30 µM (inactive) | > 30 µM (inactive) | > 30 µM (inactive) | – | > 30 µM (inactive) | > 30 µM (inactive) | > 30 µM (inactive) | > 30 µM (inactive) | > 30 µM (inactive) | > 30 µM (inactive) | > 30 µM (inactive) | > 30 µM (inactive) | > 30 µM (inactive) | – | Cn1ncc(Cl)c1-c1cc(C(=O)N[C@H](CN)Cc2ccc(F)c(F)c2)oc1Cl [UPROSERTIB]
> 30 µM (inactive) | > 30 µM (inactive) | > 30 µM (inactive) | > 30 µM (inactive) | – | > 30 µM (inactive) | > 30 µM (inactive) | > 30 µM (inactive) | > 30 µM (inactive) | > 30 µM (inactive) | > 30 µM (inactive) | > 30 µM (inactive) | > 30 µM (inactive) | > 30 µM (inactive) | 2.74 µM (active) | > 30 µM (inactive) | 0.924 µM (active) | > 30 µM (inactive) | > 30 µM (inactive) | C[C@@H](N)c1ccc(C(=O)Nc2ccnc3[nH]ccc23)cc1 [Y-39983]
> 30 µM (inactive) | > 30 µM (inactive) | > 30 µM (inactive) | > 30 µM (inactive) | – | > 30 µM (inactive) | 2.31 µM (active) | > 30 µM (inactive) | > 30 µM (inactive) | 0.93 µM (active) | > 30 µM (inactive) | 5.09 µM (active) | > 30 µM (inactive) | > 30 µM (inactive) | 2.3 µM (active) | 79.9 µM | 0.447 µM (active) | > 30 µM (inactive) | > 30 µM (inactive) | CN1C/C=C/CCOc2cccc(c2)-c2ccnc(n2)Nc2cccc(c2)C1 [ZOTIRACICLIB]

Compound | Kd [1] | Kd [2] | Kd [3] | Kd [4] | Kd [5] | Kd [6] | Kd [7] | Kd [8] | Kd [9] | Kd [10] | Kd [11] | Kd [12] | Kd [13] | Kd [14] | Kd [15] | Kd [16] | Kd [17] | Kd [18] | Kd [19]
CC(=O)c1cnc2ccc(-c3cc(Cl)c(O)c(Cl)c3)nc2c1N[C@H]1CC[C@H](CN(C)C)CC1 | 0.002 µM (active) | > 30 µM (inactive) | > 30 µM (inactive) | > 30 µM (inactive) | 0.091 µM (active) | – | 0.364 µM (active) | – | > 30 µM (inactive) | 0.253 µM (active) | 1.78 µM (active) | 0.071 µM (active) | 0.361 µM (active) | 0.515 µM (active) | 0.01 µM (active) | > 30 µM (inactive) | – | – | –
O=C(Nc1cc(C(F)(F)F)cc(C(F)(F)F)c1)c1cc(Cl)ccc1O [IMD-0354] | > 30 µM (inactive) | > 30 µM (inactive) | > 30 µM (inactive) | > 30 µM (inactive) | > 30 µM (inactive) | > 30 µM (inactive) | > 30 µM (inactive) | > 30 µM (inactive) | > 30 µM (inactive) | – | > 30 µM (inactive) | 1.46 µM (active) | > 30 µM (inactive) | > 30 µM (inactive) | > 30 µM (inactive) | > 30 µM (inactive) | > 30 µM (inactive) | > 30 µM (inactive) | > 30 µM (inactive)

Source: ChEMBL document CHEMBL3991601, “The target landscape of clinical kinase drugs” (Science, 2017)
